Reference: patent publication US8957078B2, “Compounds useful as inhibitors of ATR kinase” (Vertex Pharmaceuticals Incorporated, priority 2013, dated 2015)
pKi: −log10 of the molar value.

Key:
[1] = molecular target: T1, ATR kinase (full-length ATR) (Homo sapiens, UniProt Q13535); assay: ATR Inhibition Assay (radioactive-phosphate incorporation); format: biochemical; details: Ki(app); 5 nM full-length ATR, 10 μM ATP, 800 μM target peptide, 25° C.
T1 construct: in the presence of 5 nM full-length ATR

[2] = tested on: HCT116 colorectal cancer cells; assay: Cisplatin Sensitization Assay (96 h cell viability MTS); format: cell-based; details: concentration of compound required to reduce the IC50 of Cisplatin alone by at least 3-fold; HCT116, 96 h MTS
Outline: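 HCT116 cells treated 96 h at 37 °C with compound and cisplatin together as a full matrix of 2-fold dilutions, each from 10 μM final top concentration. Viability by MTS, absorbance 490 nm. Value reported: compound concentration lowering cisplatin IC50 at least 3-fold.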

[3] = molecular target: T2, ATR kinase, in the presence of partner proteins ATRIP, CLK2 and TopBP1 (Homo sapiens, UniProt Q13535); assay: ATR-Complex Inhibition Assay (radioactive-phosphate incorporation); format: biochemical; details: Ki(app); 4 nM full-length ATR, 40 nM ATRIP, 40 nM CLK2, 600 nM TopBP1(A891-S1105), 10 μM ATP, 25° C.
T2 construct: in the presence of 4 nM full-length ATR, 40 nM full-length ATRIP
Method: Compounds were screened for their ability to inhibit ATR kinase, in the presence of partner proteins ATRIP, CLK2 and TopBP1, using a radioactive-phosphate incorporation assay. Assays were carried out in a mixture of 50 mM Tris/HCl (pH 7.5), 10 mM MgCl2 and 1 mM DTT. Final substrate concentrations were 10 μM [g-33P]ATP (3.5 μCi 33P ATP/nmol ATP, Perkin Elmer, Massachusetts, USA) and 800 μM target peptide (ASELPASQPQPFSAKKK (SEQ. ID NO: 1)), Isca Biochemicals, Cambridgeshire, UK).
Assays were carried out at 25° C. in the presence of 4 nM full-length ATR, 40 nM full-length ATRIP, 40 nM full-length CLK2 and 600 nM TopBP1(A891-S1105). An enzyme stock buffer solution was prepared containing all of the reagents listed above, with the exception of target peptide, ATP and the test compound of interest. This enzyme stock was pre-incubated for 30 minutes at 25° C. […]
After removing mean background values for all of the data points, Ki(app) data were calculated from non-linear regression analysis of the initial rate data using the Prism software package (GraphPad Prism version 6.0c for Macintosh, GraphPad Software Inc., San Diego, USA).

T2 sequence (Q13535 whole entry): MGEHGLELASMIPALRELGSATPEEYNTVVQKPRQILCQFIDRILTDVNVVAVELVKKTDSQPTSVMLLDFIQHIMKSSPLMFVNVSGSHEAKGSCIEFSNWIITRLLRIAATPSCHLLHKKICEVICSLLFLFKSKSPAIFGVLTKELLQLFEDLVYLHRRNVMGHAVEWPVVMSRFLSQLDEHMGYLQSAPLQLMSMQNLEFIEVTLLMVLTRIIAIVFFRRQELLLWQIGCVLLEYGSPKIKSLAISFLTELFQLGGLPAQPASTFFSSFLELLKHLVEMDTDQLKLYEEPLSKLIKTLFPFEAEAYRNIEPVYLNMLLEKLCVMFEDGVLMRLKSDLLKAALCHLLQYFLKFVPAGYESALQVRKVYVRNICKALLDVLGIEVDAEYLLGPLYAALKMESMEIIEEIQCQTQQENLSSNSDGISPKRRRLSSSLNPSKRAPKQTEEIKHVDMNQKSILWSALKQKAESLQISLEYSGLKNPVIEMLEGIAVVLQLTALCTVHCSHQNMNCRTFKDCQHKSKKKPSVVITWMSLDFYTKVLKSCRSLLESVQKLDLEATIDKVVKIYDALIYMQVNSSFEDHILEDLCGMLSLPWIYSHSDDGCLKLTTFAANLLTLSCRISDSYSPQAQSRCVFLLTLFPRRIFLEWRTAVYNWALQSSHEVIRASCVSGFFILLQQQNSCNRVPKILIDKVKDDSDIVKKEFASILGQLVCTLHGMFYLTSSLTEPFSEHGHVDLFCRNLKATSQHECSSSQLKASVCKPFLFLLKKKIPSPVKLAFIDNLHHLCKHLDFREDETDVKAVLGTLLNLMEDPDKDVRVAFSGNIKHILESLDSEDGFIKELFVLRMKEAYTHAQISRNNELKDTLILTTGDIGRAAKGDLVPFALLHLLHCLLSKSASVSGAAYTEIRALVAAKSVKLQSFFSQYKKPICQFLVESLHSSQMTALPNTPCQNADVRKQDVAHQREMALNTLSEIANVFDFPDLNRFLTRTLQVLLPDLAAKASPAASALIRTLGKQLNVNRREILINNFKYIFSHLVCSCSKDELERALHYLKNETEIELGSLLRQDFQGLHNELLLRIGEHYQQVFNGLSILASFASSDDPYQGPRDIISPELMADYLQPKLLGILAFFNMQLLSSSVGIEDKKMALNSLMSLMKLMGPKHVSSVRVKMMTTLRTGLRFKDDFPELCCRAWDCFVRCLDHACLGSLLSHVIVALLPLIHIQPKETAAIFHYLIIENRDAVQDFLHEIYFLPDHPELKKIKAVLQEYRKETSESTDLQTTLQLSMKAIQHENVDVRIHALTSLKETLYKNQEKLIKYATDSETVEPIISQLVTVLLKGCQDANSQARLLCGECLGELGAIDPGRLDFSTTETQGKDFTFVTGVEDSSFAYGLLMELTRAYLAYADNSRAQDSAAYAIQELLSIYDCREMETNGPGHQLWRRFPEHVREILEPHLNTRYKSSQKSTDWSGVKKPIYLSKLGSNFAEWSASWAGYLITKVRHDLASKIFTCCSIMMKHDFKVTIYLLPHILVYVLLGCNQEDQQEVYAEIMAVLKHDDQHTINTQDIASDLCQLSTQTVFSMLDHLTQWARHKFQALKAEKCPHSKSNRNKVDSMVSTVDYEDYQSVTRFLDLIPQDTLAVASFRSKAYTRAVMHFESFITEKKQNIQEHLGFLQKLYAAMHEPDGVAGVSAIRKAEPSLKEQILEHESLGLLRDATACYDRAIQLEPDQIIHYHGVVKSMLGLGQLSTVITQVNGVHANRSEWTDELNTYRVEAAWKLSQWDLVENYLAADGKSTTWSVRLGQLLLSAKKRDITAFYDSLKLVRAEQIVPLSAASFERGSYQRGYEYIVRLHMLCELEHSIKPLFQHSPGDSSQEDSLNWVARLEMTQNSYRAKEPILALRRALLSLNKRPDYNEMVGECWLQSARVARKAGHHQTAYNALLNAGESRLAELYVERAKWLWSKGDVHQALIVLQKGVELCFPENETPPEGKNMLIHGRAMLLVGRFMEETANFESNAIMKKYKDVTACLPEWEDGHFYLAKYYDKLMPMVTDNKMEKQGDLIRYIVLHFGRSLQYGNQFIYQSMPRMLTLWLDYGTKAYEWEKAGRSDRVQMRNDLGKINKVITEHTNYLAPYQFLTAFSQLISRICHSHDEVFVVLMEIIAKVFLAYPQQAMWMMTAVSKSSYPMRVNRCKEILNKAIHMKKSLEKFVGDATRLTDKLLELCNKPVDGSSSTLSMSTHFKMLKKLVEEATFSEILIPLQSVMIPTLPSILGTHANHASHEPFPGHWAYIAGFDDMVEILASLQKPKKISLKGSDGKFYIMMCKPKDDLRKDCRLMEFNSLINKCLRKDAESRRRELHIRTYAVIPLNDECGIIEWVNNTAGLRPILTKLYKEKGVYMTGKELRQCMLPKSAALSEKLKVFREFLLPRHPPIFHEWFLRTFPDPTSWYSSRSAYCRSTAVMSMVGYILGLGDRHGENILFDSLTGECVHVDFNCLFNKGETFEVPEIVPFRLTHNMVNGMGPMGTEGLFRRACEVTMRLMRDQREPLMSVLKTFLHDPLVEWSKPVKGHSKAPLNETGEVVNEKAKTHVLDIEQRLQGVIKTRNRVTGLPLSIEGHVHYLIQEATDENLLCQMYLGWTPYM
T2 sequence (Q8WXE1 whole entry partner): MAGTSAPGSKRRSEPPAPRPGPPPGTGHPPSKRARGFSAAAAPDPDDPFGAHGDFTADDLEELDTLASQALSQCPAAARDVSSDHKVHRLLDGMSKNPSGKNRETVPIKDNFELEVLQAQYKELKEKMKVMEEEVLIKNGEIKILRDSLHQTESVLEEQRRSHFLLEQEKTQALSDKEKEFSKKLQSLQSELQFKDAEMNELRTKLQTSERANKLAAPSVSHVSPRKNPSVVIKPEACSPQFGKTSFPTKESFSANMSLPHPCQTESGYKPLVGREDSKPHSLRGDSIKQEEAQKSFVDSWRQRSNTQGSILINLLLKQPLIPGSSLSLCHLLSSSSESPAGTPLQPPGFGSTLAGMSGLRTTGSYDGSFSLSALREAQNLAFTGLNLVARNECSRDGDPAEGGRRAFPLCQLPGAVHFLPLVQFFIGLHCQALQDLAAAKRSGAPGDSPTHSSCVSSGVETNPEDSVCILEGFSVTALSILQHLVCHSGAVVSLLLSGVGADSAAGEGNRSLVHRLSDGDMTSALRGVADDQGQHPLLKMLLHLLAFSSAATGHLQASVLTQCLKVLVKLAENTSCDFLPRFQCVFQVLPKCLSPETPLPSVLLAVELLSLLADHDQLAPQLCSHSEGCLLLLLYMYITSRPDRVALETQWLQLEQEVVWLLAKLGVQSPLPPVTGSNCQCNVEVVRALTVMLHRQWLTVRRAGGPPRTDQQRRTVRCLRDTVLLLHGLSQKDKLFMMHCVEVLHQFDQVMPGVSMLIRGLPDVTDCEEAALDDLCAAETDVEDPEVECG
T1 sequence (Q13535 whole entry): as the sequence (Q13535 whole entry) above

CN1CCN(C(=O)c2ccc(-c3cnncc3NC(=O)c3c(N)nn4cc(F)cnc34)cc2)CC1 [I-B-13, 2-amino-6-fluoro-N-(5-(4-(4-methylpiperazine-1-carbonyl)phenyl)pyridazin-4-yl)pyrazolo[1,5-a]pyrimidine-3-carboxamide]
pKi [1]: 6.00 to 8.00
Cisplatin Sensitization Assay [2]: ++ (Compounds with a Cisplatin sensitization value >0.02 μM but <0.2 μM are marked with “++.”)
pKi [3]: > 8.00

Nc1nn2cc(F)cnc2c1C(=O)Nc1ccncc1N1CCN(C2COC2)CC1 [I-C-1, 2-amino-6-fluoro-N-(3-(4-(oxetan-3-yl)piperazin-1-yl)pyridin-4-yl)pyrazolo[1,5-a]pyrimidine-3-carboxamide]
pKi [1]: 6.00 to 8.00
Cisplatin Sensitization Assay [2]: ++ (Compounds with a Cisplatin sensitization value >0.02 μM but <0.2 μM are marked with “++.”)
pKi [3]: > 8.00
